Results: the supplement of paper PMC8741786
In brackets after ≈: the same amount, converted by molar mass.

What was measured:
[1] = system: Neisseria subflava/flavescens/perflava; test: minimum inhibitory concentration (ETEST); conditions: population: general population, antibiotic use in previous 6 months: No
Procedure: (§1)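 Oropharyngeal Neisseria isolates from MSM and employees in Belgium were identified to species by MALDI-TOF MS. MICs of azithromycin, ceftriaxone and ciprofloxacin were determined by ETEST on GC agar after 24 h at 36.5 °C and 5-7% CO2, in mg/L. Values beyond the strip range are reported as >256 (azithromycin) or <0.016 (ceftriaxone); isolates that did not grow are NA.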

Neisseria oralis = test: minimum inhibitory concentration (ETEST); conditions: population: general population, antibiotic use in previous 6 months: No
Procedure: as §1

Question: O=C(O)c1cn(C2CC2)c2cc(N3CCNCC3)c(F)cc2c1=O [ciprofloxacin] was tested. Which minimum inhibitory concentration ([1]; isolate id (sample isolate): Co000767_1) did it give?
Answer: 0.008 µg/mL (≈ 0.0241 µM)

Question: What about the minimum inhibitory concentration ([1]; isolate id (sample isolate): Co000767_2) of the same compound?
Answer: 1 µg/mL (≈ 3.02 µM)

Question: And the minimum inhibitory concentration ([1]; isolate id (sample isolate): Co000767_4)?
Answer: 0.016 µg/mL (≈ 0.0483 µM)

Question: And the minimum inhibitory concentration ([1]; isolate id (sample isolate): Co000767_5)?
Answer: 0.38 µg/mL (≈ 1.15 µM)

Question: What about the minimum inhibitory concentration ([1]; isolate id (sample isolate): Co000767_6) of the same compound?
Answer: 0.006 µg/mL (≈ 0.0181 µM)

Question: What about the minimum inhibitory concentration ([1]; isolate id (sample isolate): Co000767_7) of the same compound?
Answer: 0.38 µg/mL (≈ 1.15 µM)

Question: And the minimum inhibitory concentration ([1]; isolate id (sample isolate): Co000768_1)?
Answer: 0.006 µg/mL (≈ 0.0181 µM)

Question: What about the minimum inhibitory concentration ([1]; isolate id (sample isolate): Co000768_2) of the same compound?
Answer: 0.008 µg/mL (≈ 0.0241 µM)

Question: And the minimum inhibitory concentration ([1]; isolate id (sample isolate): Co000769_1)?
Answer: 0.5 µg/mL (≈ 1.51 µM)

Question: What about the minimum inhibitory concentration ([1]; isolate id (sample isolate): Co000769_2) of the same compound?
Answer: 0.008 µg/mL (≈ 0.0241 µM)

Question: What about the minimum inhibitory concentration ([1]; isolate id (sample isolate): Co000769_4) of the same compound?
Answer: 0.5 µg/mL (≈ 1.51 µM)

Question: And the minimum inhibitory concentration ([1]; isolate id (sample isolate): Co000770_2)?
Answer: 0.25 µg/mL (≈ 0.754 µM)

Question: What about the minimum inhibitory concentration ([1]; isolate id (sample isolate): Co000770_4) of the same compound?
Answer: 0.5 µg/mL (≈ 1.51 µM)

Question: What about the minimum inhibitory concentration ([1]; isolate id (sample isolate): Co000770_6) of the same compound?
Answer: 0.047 µg/mL (≈ 0.142 µM)

Question: What about the minimum inhibitory concentration ([1]; isolate id (sample isolate): Co000771_2) of the same compound?
Answer: 1 µg/mL (≈ 3.02 µM)

Question: And the minimum inhibitory concentration ([1]; isolate id (sample isolate): Co000771_3)?
Answer: 0.006 µg/mL (≈ 0.0181 µM)

Question: What about the minimum inhibitory concentration ([1]; isolate id (sample isolate): Co000771_5) of the same compound?
Answer: 0.016 µg/mL (≈ 0.0483 µM)

Question: And the minimum inhibitory concentration ([1]; isolate id (sample isolate): Co000772_1)?
Answer: 0.023 µg/mL (≈ 0.0694 µM)

Question: What about the minimum inhibitory concentration ([1]; isolate id (sample isolate): Co000772_2) of the same compound?
Answer: 0.016 µg/mL (≈ 0.0483 µM)

Question: What about the minimum inhibitory concentration ([1]; isolate id (sample isolate): Co000772_4) of the same compound?
Answer: 0.016 µg/mL (≈ 0.0483 µM)

Question: What about the minimum inhibitory concentration ([1]; isolate id (sample isolate): Co000772_5) of the same compound?
Answer: 0.012 µg/mL (≈ 0.0362 µM)

Question: What about the minimum inhibitory concentration ([1]; isolate id (sample isolate): Co000772_6) of the same compound?
Answer: 0.008 µg/mL (≈ 0.0241 µM)

Question: What about the minimum inhibitory concentration ([1]; isolate id (sample isolate): Co000773_1) of the same compound?
Answer: 0.38 µg/mL (≈ 1.15 µM)

Question: What about the minimum inhibitory concentration ([1]; isolate id (sample isolate): Co000773_2) of the same compound?
Answer: 0.38 µg/mL (≈ 1.15 µM)

Question: What about the minimum inhibitory concentration ([1]; isolate id (sample isolate): Co000774_2) of the same compound?
Answer: 0.047 µg/mL (≈ 0.142 µM)

Question: And the minimum inhibitory concentration ([1]; isolate id (sample isolate): Co000775_1)?
Answer: 1 µg/mL (≈ 3.02 µM)

Question: What about the minimum inhibitory concentration ([1]; isolate id (sample isolate): Co000775_2) of the same compound?
Answer: 0.016 µg/mL (≈ 0.0483 µM)

Question: And the minimum inhibitory concentration ([1]; isolate id (sample isolate): Co000775_3)?
Answer: 0.25 µg/mL (≈ 0.754 µM)

Question: What about the minimum inhibitory concentration ([1]; isolate id (sample isolate): Co000776_2) of the same compound?
Answer: 0.047 µg/mL (≈ 0.142 µM)

Question: What about the minimum inhibitory concentration ([1]; isolate id (sample isolate): Co000776_3) of the same compound?
Answer: 0.047 µg/mL (≈ 0.142 µM)

Question: And the minimum inhibitory concentration ([1]; isolate id (sample isolate): Co000777_1)?
Answer: 1 µg/mL (≈ 3.02 µM)

Question: What about the minimum inhibitory concentration ([1]; isolate id (sample isolate): Co000777_2) of the same compound?
Answer: 0.5 µg/mL (≈ 1.51 µM)

Question: What about the minimum inhibitory concentration ([1]; isolate id (sample isolate): Co000777_4) of the same compound?
Answer: 2 µg/mL (≈ 6.04 µM)

Question: What about the minimum inhibitory concentration ([1]; isolate id (sample isolate): Co000778_1) of the same compound?
Answer: 0.012 µg/mL (≈ 0.0362 µM)

Question: And the minimum inhibitory concentration ([1]; isolate id (sample isolate): Co000778_2)?
Answer: > 32 µg/mL

Question: What about the minimum inhibitory concentration ([1]; isolate id (sample isolate): Co000778_3) of the same compound?
Answer: 0.012 µg/mL (≈ 0.0362 µM)

Question: What about the minimum inhibitory concentration ([1]; isolate id (sample isolate): Co000780_4) of the same compound?
Answer: 0.75 µg/mL (≈ 2.26 µM)

Question: And the minimum inhibitory concentration ([1]; isolate id (sample isolate): Co000781_1)?
Answer: 0.5 µg/mL (≈ 1.51 µM)

Question: What about the minimum inhibitory concentration ([1]; isolate id (sample isolate): Co000781_3) of the same compound?
Answer: 2 µg/mL (≈ 6.04 µM)

Question: And the minimum inhibitory concentration ([1]; isolate id (sample isolate): Co000781_4)?
Answer: 0.75 µg/mL (≈ 2.26 µM)

Question: What about the minimum inhibitory concentration ([1]; isolate id (sample isolate): Co000782_2) of the same compound?
Answer: 0.016 µg/mL (≈ 0.0483 µM)

Question: And the minimum inhibitory concentration ([1]; isolate id (sample isolate): Co000782_3)?
Answer: 0.012 µg/mL (≈ 0.0362 µM)

Question: And the minimum inhibitory concentration ([1]; isolate id (sample isolate): Co000782_4)?
Answer: 0.023 µg/mL (≈ 0.0694 µM)

Question: And the minimum inhibitory concentration ([1]; isolate id (sample isolate): Co000783_1)?
Answer: 0.064 µg/mL (≈ 0.193 µM)

Question: What about the minimum inhibitory concentration ([1]; isolate id (sample isolate): Co000783_2) of the same compound?
Answer: 0.094 µg/mL (≈ 0.284 µM)

Question: What about the minimum inhibitory concentration ([1]; isolate id (sample isolate): Co000783_5) of the same compound?
Answer: 0.012 µg/mL (≈ 0.0362 µM)

Question: What about the minimum inhibitory concentration ([1]; isolate id (sample isolate): Co000784_1) of the same compound?
Answer: 0.023 µg/mL (≈ 0.0694 µM)

Question: And the minimum inhibitory concentration ([1]; isolate id (sample isolate): Co000784_2)?
Answer: 0.75 µg/mL (≈ 2.26 µM)

Question: And the minimum inhibitory concentration ([1]; isolate id (sample isolate): Co000784_5)?
Answer: 0.023 µg/mL (≈ 0.0694 µM)

Question: And the minimum inhibitory concentration ([1]; isolate id (sample isolate): Co000785_1)?
Answer: 0.016 µg/mL (≈ 0.0483 µM)

Question: What about the minimum inhibitory concentration ([1]; isolate id (sample isolate): Co000785_2) of the same compound?
Answer: 0.25 µg/mL (≈ 0.754 µM)

Question: And the minimum inhibitory concentration ([1]; isolate id (sample isolate): Co000785_3)?
Answer: 0.125 µg/mL (≈ 0.377 µM)

Question: What about the minimum inhibitory concentration ([1]; isolate id (sample isolate): Co000785_4) of the same compound?
Answer: 0.012 µg/mL (≈ 0.0362 µM)

Question: What about the minimum inhibitory concentration ([1]; isolate id (sample isolate): Co000786_1) of the same compound?
Answer: 0.047 µg/mL (≈ 0.142 µM)

Question: What about the minimum inhibitory concentration ([1]; isolate id (sample isolate): Co000786_2) of the same compound?
Answer: 0.016 µg/mL (≈ 0.0483 µM)

Question: What about the minimum inhibitory concentration ([1]; isolate id (sample isolate): Co000787_1) of the same compound?
Answer: > 32 µg/mL

Question: What about the minimum inhibitory concentration ([1]; isolate id (sample isolate): Co000787_2) of the same compound?
Answer: 0.023 µg/mL (≈ 0.0694 µM)

Question: What about the minimum inhibitory concentration ([1]; isolate id (sample isolate): Co000787_4) of the same compound?
Answer: 0.023 µg/mL (≈ 0.0694 µM)

Question: And the minimum inhibitory concentration ([1]; isolate id (sample isolate): Co000788_2)?
Answer: 0.25 µg/mL (≈ 0.754 µM)

Question: And the minimum inhibitory concentration ([1]; isolate id (sample isolate): Co000788_3)?
Answer: 0.016 µg/mL (≈ 0.0483 µM)

Question: What about the minimum inhibitory concentration ([1]; isolate id (sample isolate): Co000788_5) of the same compound?
Answer: 0.19 µg/mL (≈ 0.573 µM)

Question: What about the minimum inhibitory concentration ([1]; isolate id (sample isolate): Co000789_1) of the same compound?
Answer: 0.016 µg/mL (≈ 0.0483 µM)

Question: What about the minimum inhibitory concentration ([1]; isolate id (sample isolate): Co000790_2) of the same compound?
Answer: 0.006 µg/mL (≈ 0.0181 µM)

Question: What about the minimum inhibitory concentration ([1]; isolate id (sample isolate): Co000790_4) of the same compound?
Answer: 0.006 µg/mL (≈ 0.0181 µM)

Question: And the minimum inhibitory concentration (Neisseria oralis; isolate id (sample isolate): Co000761_7)?
Answer: 0.016 µg/mL (≈ 0.0483 µM)

Question: And the minimum inhibitory concentration (Neisseria oralis; isolate id (sample isolate): Co000763_1)?
Answer: 0.012 µg/mL (≈ 0.0362 µM)

Question: What about the minimum inhibitory concentration (Neisseria oralis; isolate id (sample isolate): Co000766_2) of the same compound?
Answer: 0.023 µg/mL (≈ 0.0694 µM)

Question: What about the minimum inhibitory concentration (Neisseria oralis; isolate id (sample isolate): Co000770_1) of the same compound?
Answer: 0.016 µg/mL (≈ 0.0483 µM)

Question: And the minimum inhibitory concentration (Neisseria oralis; isolate id (sample isolate): Co000774_1)?
Answer: 0.023 µg/mL (≈ 0.0694 µM)

Question: And the minimum inhibitory concentration (Neisseria oralis; isolate id (sample isolate): Co000776_1)?
Answer: 0.016 µg/mL (≈ 0.0483 µM)

Question: What about the minimum inhibitory concentration (Neisseria oralis; isolate id (sample isolate): Co000776_1.1) of the same compound?
Answer: 0.012 µg/mL (≈ 0.0362 µM)

Question: And the minimum inhibitory concentration (Neisseria oralis; isolate id (sample isolate): Co000779_2)?
Answer: 0.012 µg/mL (≈ 0.0362 µM)

Question: What about the minimum inhibitory concentration (Neisseria oralis; isolate id (sample isolate): Co000790_5) of the same compound?
Answer: 0.006 µg/mL (≈ 0.0181 µM)
